The assay deals with MV-4-11 cells. Kind of assay: Gene expression microarray analysis (Affymetrix PrimeView) and GSEA. The format is cell-based, human. Further details: RFU PODN (11730768_x_at) / Fold change /veh PODN (11730768_x_at) / RFU LINC00158 (11744669_a_at) / Fold change /veh LINC00158 (11744669_a_at) / RFU DUSP10 (11751237_a_at) / Fold change /veh DUSP10 (11751237_a_at) / RFU ID3 (11757404_x_at) / Fold change /veh ID3 (11757404_x_at) / RFU PLEKHG5 (11737974_s_at) / Fold change /veh PLEKHG5 (11737974_s_at) / RFU LRRC4B (11730491_at) / Fold change /veh LRRC4B (11730491_at) / RFU GIMAP4 (11747438_a_at) / Fold change /veh GIMAP4 (11747438_a_at) / RFU KRT8 (11758183_x_at) / Fold change /veh KRT8 (11758183_x_at) / RFU CNN1 (11734310_a_at) / Fold change /veh CNN1 (11734310_a_at) / RFU VPS37D (11726825_at) / Fold change /veh VPS37D (11726825_at) / RFU C10orf10 (11716522_x_at) / Fold change /veh C10orf10 (11716522_x_at) / RFU KIR2DL2 /// KIR2DL4 /// KIR2DL5A /// KIR2DL5B /// KIR2DS1 /// KIR2DS2 /// KIR2DS3 /// KIR2DS4 /// KIR3DL3 /// KIR3DL3 /// KIR3DS1 (11738374_at) / Fold change /veh KIR2DL2 /// KIR2DL4 /// KIR2DL5A /// KIR2DL5B /// KIR2DS1 /// KIR2DS2 /// KIR2DS3 /// KIR2DS4 /// KIR3DL3 /// KIR3DL3 /// KIR3DS1 (11738374_at) / RFU C1QL1 (11718748_at) / Fold change /veh C1QL1 (11718748_at) / RFU TMPRSS4 (11747572_a_at) / Fold change /veh TMPRSS4 (11747572_a_at) / RFU HAMP (11756126_x_at) / Fold change /veh HAMP (11756126_x_at) / RFU RNFT2 (11725882_a_at) / Fold change /veh RNFT2 (11725882_a_at) / RFU NR4A2 (11747474_a_at) / Fold change /veh NR4A2 (11747474_a_at) / RFU ABCC12 (11746883_a_at) / Fold change /veh ABCC12 (11746883_a_at) / RFU TMEM136 (11760407_x_at) / Fold change /veh TMEM136 (11760407_x_at) / RFU CLDN22 /// WWC2 (11732394_at) / Fold change /veh CLDN22 /// WWC2 (11732394_at) / RFU HLA-DPB1 (11760878_x_at) / Fold change /veh HLA-DPB1 (11760878_x_at) / RFU SPINT1 (11716480_a_at) / Fold change /veh SPINT1 (11716480_a_at) / RFU GAP43 (11754022_s_at) / Fold change /veh GAP43 (11754022_s_at) / RFU A4GNT (11735810_at) / Fold change /veh A4GNT (11735810_at) / RFU PRB3 (11715151_x_at) / Fold change /veh PRB3 (11715151_x_at) / RFU TUBB4B (11761932_at) / Fold change /veh TUBB4B (11761932_at) / RFU CAPN14 (11732068_a_at) / Fold change /veh CAPN14 (11732068_a_at) / RFU TMCC2 (11721928_a_at) / Fold change /veh TMCC2 (11721928_a_at) / RFU IRGQ (11745062_a_at) / Fold change /veh IRGQ (11745062_a_at) / RFU FAM174B (11720279_a_at) / Fold change /veh FAM174B (11720279_a_at) / RFU TMPRSS4 (11748680_a_at) / Fold change /veh TMPRSS4 (11748680_a_at) / RFU FAM212B (11763350_a_at) / Fold change /veh FAM212B (11763350_a_at) / RFU PLEKHG5 (11743358_a_at) / Fold change /veh PLEKHG5 (11743358_a_at) / RFU ZSCAN30 (11745921_a_at) / Fold change /veh ZSCAN30 (11745921_a_at) / RFU CMKLR1 (11741424_a_at) / Fold change /veh CMKLR1 (11741424_a_at) / RFU LOC101060620 /// MAPK8IP1 (11723275_at) / Fold change /veh LOC101060620 /// MAPK8IP1 (11723275_at) / RFU SPTSSB (11747773_x_at) / Fold change /veh SPTSSB (11747773_x_at) / RFU PRSS12 (11739890_at) / Fold change /veh PRSS12 (11739890_at) / RFU BIN1 (11741810_x_at) / Fold change /veh BIN1 (11741810_x_at) / RFU WNT11 (11732464_a_at) / Fold change /veh WNT11 (11732464_a_at) / RFU C10orf10 (11716521_a_at) / Fold change /veh C10orf10 (11716521_a_at) / RFU C5orf56 (11738089_at) / Fold change /veh C5orf56 (11738089_at) / RFU CYB561 (11721691_x_at) / Fold change /veh CYB561 (11721691_x_at) / RFU ANKRD19P (11752326_a_at) / Fold change /veh ANKRD19P (11752326_a_at) / RFU OR2T12 /// OR2T33 /// OR2T8 (11738714_s_at) / Fold change /veh OR2T12 /// OR2T33 /// OR2T8 (11738714_s_at) / RFU VCAN (11748164_a_at) / Fold change /veh VCAN (11748164_a_at) / RFU JSRP1 (11732532_at) / Fold change /veh JSRP1 (11732532_at) / RFU KRTAP10-11 (11738290_x_at) / Fold change /veh KRTAP10-11 (11738290_x_at) / RFU MYO3A (11730013_a_at) / Fold change /veh MYO3A (11730013_a_at) / RFU EBF3 (11725865_a_at) / Fold change /veh EBF3 (11725865_a_at) / RFU CAMK2N1 (11719241_x_at) / Fold change /veh CAMK2N1 (11719241_x_at) / RFU C5orf56 (11738088_a_at) / Fold change /veh C5orf56 (11738088_a_at) / RFU OLFML3 (11715873_a_at) / Fold change /veh OLFML3 (11715873_a_at) / RFU LOC100653217 /// NTM (11731650_a_at) / Fold change /veh LOC100653217 /// NTM (11731650_a_at) / RFU MAPK11 (11762145_a_at) / Fold change /veh MAPK11 (11762145_a_at) / RFU FIZ1 (11724087_x_at) / Fold change /veh FIZ1 (11724087_x_at) / RFU OASL (11726364_x_at) / Fold change /veh OASL (11726364_x_at) / RFU SOX15 (11748057_x_at) / Fold change /veh SOX15 (11748057_x_at) / RFU CD79A (11719716_a_at) / Fold change /veh CD79A (11719716_a_at) / RFU HIST1H1D (11736915_at) / Fold change /veh HIST1H1D (11736915_at) / RFU CASKIN2 (11723855_a_at) / Fold change /veh CASKIN2 (11723855_a_at) / RFU LOC730098 (11760151_x_at) / Fold change /veh LOC730098 (11760151_x_at) / RFU OR4N2 (11742367_at) / Fold change /veh OR4N2 (11742367_at) / RFU PRRT2 (11749266_a_at) / Fold change /veh PRRT2 (11749266_a_at) / RFU SNX32 (11753110_a_at) / Fold change /veh SNX32 (11753110_a_at) / RFU CDHR5 (11726645_a_at) / Fold change /veh CDHR5 (11726645_a_at) / RFU RCAN1 (11760418_a_at) / Fold change /veh RCAN1 (11760418_a_at) / RFU FAM167A (11723789_a_at) / Fold change /veh FAM167A (11723789_a_at) / RFU FAM26E (11764081_at) / Fold change /veh FAM26E (11764081_at) / RFU ISYNA1 (11749810_s_at) / Fold change /veh ISYNA1 (11749810_s_at) / RFU ACY1 (11761880_at) / Fold change /veh ACY1 (11761880_at) / RFU 11764098_at / Fold change /veh 11764098_at / RFU SAMD14 (11745864_x_at) / Fold change /veh SAMD14 (11745864_x_at) / RFU NPB (11741838_a_at) / Fold change /veh NPB (11741838_a_at) / RFU TMPRSS6 (11731388_a_at) / Fold change /veh TMPRSS6 (11731388_a_at) / RFU KRTAP10-2 (11738614_at) / Fold change /veh KRTAP10-2 (11738614_at) / RFU ARHGAP8 /// PRR5-ARHGAP8 (11727945_x_at) / Fold change /veh ARHGAP8 /// PRR5-ARHGAP8 (11727945_x_at) / RFU KRTAP5-7 /// NADSYN1 (11734609_at) / Fold change /veh KRTAP5-7 /// NADSYN1 (11734609_at) / RFU RASL12 (11751679_a_at) / Fold change /veh RASL12 (11751679_a_at) / RFU CDKN2B (11736163_a_at) / Fold change /veh CDKN2B (11736163_a_at) / RFU PRF1 (11729649_at) / Fold change /veh PRF1 (11729649_at) / RFU, ZNF638 /// ZNF638-IT1 / Fold change vs veh, ZNF638 /// ZNF638-IT1 / RFU, PANK3 / Fold change vs veh, PANK3 / RFU, SH3YL1 / Fold change vs veh, SH3YL1 / RFU, ZEB2 / Fold change vs veh, ZEB2 / RFU, NRIP1 / Fold change vs veh, NRIP1 / RFU, PTTG1IP / Fold change vs veh, PTTG1IP / RFU, CAPN2 / Fold change vs veh, CAPN2 / RFU, MED14 / Fold change vs veh, MED14 / RFU, SNORA58 / Fold change vs veh, SNORA58 / RFU, C1orf63 / Fold change vs veh, C1orf63 / RFU, LRRFIP1 / Fold change vs veh, LRRFIP1 / RFU, NDUFAF7 / Fold change vs veh, NDUFAF7 / RFU, SLC12A2 / Fold change vs veh, SLC12A2 / RFU, IBTK / Fold change vs veh, IBTK / RFU, ESF1 / Fold change vs veh, ESF1 / Fold change vs veh, TMEM50B / RFU, TAOK1 / Fold change vs veh, TAOK1 / RFU, ACBD3 / Fold change vs veh, ACBD3 / RFU, TMA16 / Fold change vs veh, TMA16 / RFU, RWDD3 / Fold change vs veh, RWDD3 / RFU, BCAT1 / Fold change vs veh, BCAT1 / RFU, EDEM3 / Fold change vs veh, EDEM3 / RFU, TMEM33 / Fold change vs veh, TMEM33 / RFU, WDR75 / Fold change vs veh, WDR75 / RFU, AHCTF1 / Fold change vs veh, AHCTF1 / RFU, TFRC / Fold change vs veh, TFRC / RFU, ZDHHC17 / Fold change vs veh, ZDHHC17 / RFU, NOM1 / Fold change vs veh, NOM1 / RFU, ARL8B / Fold change vs veh, ARL8B / RFU, ZBTB11 / Fold change vs veh, ZBTB11 / RFU, TAMM41 / Fold change vs veh, TAMM41 / RFU, KIAA1704 /// LOC100996395 / Fold change vs veh, KIAA1704 /// LOC100996395 / RFU, ING1 / Fold change vs veh, ING1 / RFU, TRMT61B / Fold change vs veh, TRMT61B / RFU, FUBP3 / Fold change vs veh, FUBP3 / RFU, TP53 / Fold change vs veh, TP53 / RFU, TNKS2 / Fold change vs veh, TNKS2 / RFU, ZFP14 / Fold change vs veh, ZFP14 / RFU, ACTR2 / Fold change vs veh, ACTR2 / RFU, PPP3R1 / Fold change vs veh, PPP3R1 / RFU, PIK3R1 / Fold change vs veh, PIK3R1 / RFU, HNRNPA1 / Fold change vs veh, HNRNPA1 / RFU, RNF170 / Fold change vs veh, RNF170 / RFU, ZNF28 / Fold change vs veh, ZNF28 / RFU, RNGTT / Fold change vs veh, RNGTT / RFU, OGT / Fold change vs veh, OGT / RFU, BRD1 / Fold change vs veh, BRD1 / RFU, MARS / Fold change vs veh, MARS / RFU, ZNF655 / Fold change vs veh, ZNF655 / RFU, FAHD1 / Fold change vs veh, FAHD1 / RFU, BDP1 / Fold change vs veh, BDP1 / RFU, LRRCC1 / Fold change vs veh, LRRCC1 / RFU, ARID1A / Fold change vs veh, ARID1A / RFU, ZNF146 / Fold change vs veh, ZNF146 / RFU, ZNF330 / Fold change vs veh, ZNF330 / RFU, GPN3 / Fold change vs veh, GPN3 / RFU, C9orf123 / Fold change vs veh, C9orf123 / RFU, N4BP2L2 / Fold change vs veh, N4BP2L2 / RFU, ARFIP1 / Fold change vs veh, ARFIP1 / RFU, FAM179B / Fold change vs veh, FAM179B / RFU, BCL10 / Fold change vs veh, BCL10 / RFU, UHRF1BP1L / Fold change vs veh, UHRF1BP1L / RFU, BET1 / Fold change vs veh, BET1 / RFU, CNOT2 / Fold change vs veh, CNOT2 / RFU, ZNF268 / Fold change vs veh, ZNF268 / Fold change vs veh, ZNF507 / RFU, DGCR2 / Fold change vs veh, DGCR2 / RFU, WDSUB1 / Fold change vs veh, WDSUB1 / Fold change vs veh, HSP90B1 /// MIR3652 / RFU, ADSS / Fold change vs veh, ADSS / RFU, GK / Fold change vs veh, GK / RFU, ZNF148 / Fold change vs veh, ZNF148 / RFU, TAF9 / Fold change vs veh, TAF9 / RFU, SLC1A5 / Fold change vs veh, SLC1A5 / RFU, SLMO2 / Fold change vs veh, SLMO2 / RFU, ABCC4 / Fold change vs veh, ABCC4 / RFU, LOC101060439 /// RAP1B / Fold change vs veh, LOC101060439 /// RAP1B / RFU, RFX7 / Fold change vs veh, RFX7 / RFU, GTPBP10 / Fold change vs veh, GTPBP10 / RFU, CNEP1R1 / Fold change vs veh, CNEP1R1 / RFU, BIVM-ERCC5 /// ERCC5 / Fold change vs veh, BIVM-ERCC5 /// ERCC5 / RFU, ILF3 / Fold change vs veh, ILF3 / RFU 11762660_at / Fold change /veh 11762660_at / RFU VCAN (11757783_s_at) / Fold change /veh VCAN (11757783_s_at) / RFU DDX43 (11728927_at) / Fold change /veh DDX43 (11728927_at) / RFU KRT8 (11758188_x_at) / Fold change /veh KRT8 (11758188_x_at) / RFU NKD1 (11759106_at) / Fold change /veh NKD1 (11759106_at) / RFU SRD5A1 (11742802_a_at) / Fold change /veh SRD5A1 (11742802_a_at) / RFU TPSAB1 /// TPSB2 (11721975_s_at) / Fold change /veh TPSAB1 /// TPSB2 (11721975_s_at) / RFU GSTM3 (11746129_a_at) / Fold change /veh GSTM3 (11746129_a_at) / RFU IL23R (11737362_x_at) / Fold change /veh IL23R (11737362_x_at) / RFU TMEM51 (11727254_a_at) / Fold change /veh TMEM51 (11727254_a_at) / RFU PIWIL2 (11732686_x_at) / Fold change /veh PIWIL2 (11732686_x_at) / RFU ORM1 (11744905_x_at) / Fold change /veh ORM1 (11744905_x_at) / RFU CCDC152 (11743942_at) / Fold change /veh CCDC152 (11743942_at) / RFU ECM1 (11717891_a_at) / Fold change /veh ECM1 (11717891_a_at) / RFU IL23R (11748794_a_at) / Fold change /veh IL23R (11748794_a_at) / RFU TNFAIP8L3 (11732012_x_at) / Fold change /veh TNFAIP8L3 (11732012_x_at) / RFU MBOAT4 (11741988_at) / Fold change /veh MBOAT4 (11741988_at) / RFU 11764193_at / Fold change /veh 11764193_at / RFU TMEM53 (11763286_at) / Fold change /veh TMEM53 (11763286_at) / RFU MAGEB2 (11727129_at) / Fold change /veh MAGEB2 (11727129_at) / RFU TMEM200A (11744735_a_at) / Fold change /veh TMEM200A (11744735_a_at) / RFU CCDC152 (11751479_a_at) / Fold change /veh CCDC152 (11751479_a_at) / RFU FAM211A (11726209_a_at) / Fold change /veh FAM211A (11726209_a_at) / RFU RGS16 (11746705_a_at) / Fold change /veh RGS16 (11746705_a_at) / RFU VCAN (11755009_s_at) / Fold change /veh VCAN (11755009_s_at) / RFU RHOB (11743442_s_at) / Fold change /veh RHOB (11743442_s_at) / RFU RGS16 (11720943_a_at) / Fold change /veh RGS16 (11720943_a_at) / RFU RGS16 (11720944_at) / Fold change /veh RGS16 (11720944_at) / RFU, VPS4B / Fold change vs veh, VPS4B / RFU, CREB1 / Fold change vs veh, CREB1 / RFU, DNAJC13 / Fold change vs veh, DNAJC13 / RFU, GNAQ / Fold change vs veh, GNAQ / RFU, CDK5R1 / Fold change vs veh, CDK5R1 / RFU, ZRANB3 / Fold change vs veh, ZRANB3 / RFU, CUL4A / Fold change vs veh, CUL4A / RFU, CCNY / Fold change vs veh, CCNY / RFU, UFL1 / Fold change vs veh, UFL1 / RFU, COG3 / Fold change vs veh, COG3 / RFU, DIAPH2 / Fold change vs veh, DIAPH2 / RFU, SKA2 / Fold change vs veh, SKA2 / RFU, AFF3 / Fold change vs veh, AFF3 / RFU, LMF1 / Fold change vs veh, LMF1 / RFU, IPO11 / Fold change vs veh, IPO11 / RFU, DFFB / Fold change vs veh, DFFB / RFU, FOXP1 / Fold change vs veh, FOXP1 / RFU, CARD8 / Fold change vs veh, CARD8 / RFU, STRN3 / Fold change vs veh, STRN3 / RFU, ADK / Fold change vs veh, ADK / RFU, RASSF2 / Fold change vs veh, RASSF2 / RFU, WIPF1 / Fold change vs veh, WIPF1 / RFU, LARP1B / Fold change vs veh, LARP1B / RFU, RASA1 / Fold change vs veh, RASA1 / RFU, RB1 / Fold change vs veh, RB1 / RFU, PPFIA1 / Fold change vs veh, PPFIA1 / RFU, MAT2A / Fold change vs veh, MAT2A / RFU, CCT5 / Fold change vs veh, CCT5 / RFU, WDR92 / Fold change vs veh, WDR92 / RFU, CUX1 / Fold change vs veh, CUX1 / RFU, TTC7A / Fold change vs veh, TTC7A / RFU, TMEM135 / Fold change vs veh, TMEM135 / RFU, DEPTOR / Fold change vs veh, DEPTOR / RFU, CPM / Fold change vs veh, CPM / RFU, DNAJB6 / Fold change vs veh, DNAJB6 / RFU, CACNA2D3 / Fold change vs veh, CACNA2D3 / RFU, DTX4 / Fold change vs veh, DTX4 / RFU, TFCP2 / Fold change vs veh, TFCP2 / RFU, GMCL1 /// GMCL1P1 / Fold change vs veh, GMCL1 /// GMCL1P1 / RFU, AEBP2 / Fold change vs veh, AEBP2 / RFU, SNHG1 /// SNORD22 /// SNORD25 /// SNORD26 /// SNORD27 /// SNORD28 /// SNORD29 /// SNORD31 / Fold change vs veh, SNHG1 /// SNORD22 /// SNORD25 /// SNORD26 /// SNORD27 /// SNORD28 /// SNORD29 /// SNORD31 / Fold change (Aza/veh), C12orf56 (ProbeSet 11735607_a_at) / Fold change (ACY-1035/veh), C12orf56 (ProbeSet 11735607_a_at) / Fold change (Aza/veh), FGFR1OP (ProbeSet 11751329_s_at) / Fold change (ACY-1035/veh), FGFR1OP (ProbeSet 11751329_s_at) / Fold change (Aza/veh), VPS36 (ProbeSet 11739960_a_at) / Fold change (ACY-1035/veh), VPS36 (ProbeSet 11739960_a_at) / RFU SYPL1 (11715823_x_at) / Fold change /veh SYPL1 (11715823_x_at) / RFU IGFBP7 (11715501_s_at) / Fold change /veh IGFBP7 (11715501_s_at) / RFU REEP3 (11722064_at) / Fold change /veh REEP3 (11722064_at) / RFU IGLL1 (11728026_x_at) / Fold change /veh IGLL1 (11728026_x_at): dose or concentration left out as unconfirmed. The conditions noted are these: ProbeSet 11731093_s_at; LIST B.

As for `Nc1ccc(-c2cccs2)cc1NC(=O)c1ccc2c(c1)cc(C1CC1)n2CCN1CCOCC1` [ACY-1035], the “Fold change vs veh, BRD1” value turned out to be 0.87.
